Test results as given in ChEMBL document CHEMBL4184259, “Design, synthesis and evaluation of 4'-OH-flurbiprofen-chalcone hybrids as potential multifunctional agents for Alzheimer's disease treatment” (Bioorg Med Chem, 2018).
Activity calls are given as the source filed them. The calls are words filed in the database; no cut-off is given here.

Key:
[1] = Antioxidant activity assessed as trolox equivalent of […]-induced radical scavenging activity at 1 to 10 uM pretreated for 15 mins followed by […] addition measured at 1 min interval for 90 mins by ORAC-FL assay; assay type: functional
[2] = target: Amyloid-beta precursor protein (Homo sapiens) (UniProt P05067); assay: Inhibition of self-induced aggregation of amyloid beta (1 to 42) (unknown origin) at 25 uM after 24 hrs by thioflavin T fluorescence method relative to control
[3] = Inhibition of cupric ion-mediated amyloid beta (1 to 42) aggregation at 25 uM after 24 hrs by thioflavin T fluorescence assay relative to control
BV-2 [4] = assay: Cytotoxicity against mouse BV2 cells assessed as effect on cell viability up to 10 uM after 30 mins by MTT assay; assay type: cell-based; settings: bv-2, 0.5 h
BV-2 [5] = assay: Cytotoxicity against mouse BV2 cells assessed as reduction in cell viability at 40 uM after 30 mins by MTT assay relative to control; assay type: cell-based; settings: bv-2, 0.5 h
BV-2 [6] = assay: Cytotoxicity against LPS-induced mouse BV2 cells assessed as effect on cell viability at 0.5 to 10 uM pretreated for 30 mins followed by LPS-stimulation after 24 hrs by MTT assay; assay type: cell-based; settings: bv-2, 24 h
BV-2 [7] = assay: Antiinflammatory activity in mouse BV2 cells assessed as inhibition of LPS-induced nitric oxide production at 2.5 uM pretreated for 30 mins followed by LPS-stimulation measured after 24 hrs by Griess assay relative to control; assay type: functional
BV-2 [8] = assay: Antiinflammatory activity in mouse BV2 cells assessed as inhibition of LPS-induced nitric oxide production at 10 uM pretreated for 30 mins followed by LPS-stimulation measured after 24 hrs by Griess assay relative to control; assay type: functional
BV-2 [9] = assay: Antiinflammatory activity in mouse BV2 cells assessed as inhibition of LPS-induced nitric oxide production at 0.5 uM pretreated for 30 mins followed by LPS-stimulation measured after 24 hrs by Griess assay relative to control; assay type: functional
BV-2 [10] = assay: Antiinflammatory activity in mouse BV2 cells assessed as inhibition of LPS-induced TNFalpha production at 2.5 uM pretreated for 30 mins followed by LPS-stimulation measured after 24 hrs by ELISA relative to control; assay type: functional
BV-2 [11] = assay: Antiinflammatory activity in mouse BV2 cells assessed as inhibition of LPS-induced TNFalpha production at 10 uM pretreated for 30 mins followed by LPS-stimulation measured after 24 hrs by ELISA relative to control; assay type: functional
BV-2 [12] = assay: Antiinflammatory activity in mouse BV2 cells assessed as inhibition of LPS-induced TNFalpha production at 0.5 uM pretreated for 30 mins followed by LPS-stimulation measured after 24 hrs by ELISA relative to control; assay type: functional
[13] = Metal chelating activity assessed as Cu2+-compound complex formation by measuring shift in maximum absorption wavelength at 37.5 uM after 30 mins by UV-Vis spectral analysis
[14] = Metal chelating activity assessed as Al3+-compound complex formation by measuring shift in maximum absorption wavelength at 37.5 uM after 30 mins by UV-Vis spectral analysis
[15] = Metal chelating activity assessed as mole fraction of compound required to show 1:1 stoichiometry for Cu2+-compound complex by UV-vis spectral analysis
[16] = Effective permeability of the compound in PBS/EtOH at 100 ug/ml after 18 hrs by PAMPA-BBB assay
BV-2 [17] = assay: Cytotoxicity against LPS-induced mouse BV2 cells assessed as effect on cell viability at 2.5 to 10 uM pretreated for 30 mins followed by LPS-stimulation after 24 hrs by MTT assay; assay type: cell-based; settings: bv-2, 24 h
[18] = Metal chelating activity assessed as Fe2+-compound complex formation by measuring shift in maximum absorption wavelength at 37.5 uM after 30 mins by UV-Vis spectral analysis
[19] = Metal chelating activity assessed as Zn2+-compound complex formation by measuring shift in maximum absorption wavelength at 37.5 uM after 30 mins by UV-Vis spectral analysis

Chain of Amyloid-beta precursor protein (Homo sapiens) (P05067 whole entry): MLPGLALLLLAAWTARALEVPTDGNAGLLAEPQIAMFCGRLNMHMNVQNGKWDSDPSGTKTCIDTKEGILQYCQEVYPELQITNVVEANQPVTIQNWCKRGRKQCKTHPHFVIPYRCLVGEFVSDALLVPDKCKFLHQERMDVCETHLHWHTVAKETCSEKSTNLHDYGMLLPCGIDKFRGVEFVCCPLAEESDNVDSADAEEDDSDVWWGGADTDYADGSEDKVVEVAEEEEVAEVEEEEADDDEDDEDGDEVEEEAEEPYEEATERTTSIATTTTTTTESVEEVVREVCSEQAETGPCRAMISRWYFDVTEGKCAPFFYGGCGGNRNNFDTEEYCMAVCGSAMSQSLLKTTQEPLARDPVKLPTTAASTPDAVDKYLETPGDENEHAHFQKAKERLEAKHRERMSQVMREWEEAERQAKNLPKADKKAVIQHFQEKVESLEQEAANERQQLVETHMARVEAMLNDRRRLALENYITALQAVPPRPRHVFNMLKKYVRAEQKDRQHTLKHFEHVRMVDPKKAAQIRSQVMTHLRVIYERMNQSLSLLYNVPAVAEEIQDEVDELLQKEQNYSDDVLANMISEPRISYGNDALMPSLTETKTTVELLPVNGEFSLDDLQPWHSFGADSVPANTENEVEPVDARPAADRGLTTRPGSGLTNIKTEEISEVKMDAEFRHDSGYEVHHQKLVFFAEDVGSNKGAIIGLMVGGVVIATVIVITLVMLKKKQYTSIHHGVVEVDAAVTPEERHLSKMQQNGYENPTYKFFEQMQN

Row | SMILES | Activity [1] | inhibition [2] | inhibition [3] | other results
1 | CC(C(=O)O)c1ccc(-c2ccc(O)c(C(=O)/C=C/c3cccnc3)c2)c(F)c1 (centres undefined) | 1.1 equiv | 8.3% | 47% | 
2 | COc1ccc(/C=C/C(=O)c2cc(-c3ccc(C(C)C(=O)O)cc3F)ccc2O)c(OC)c1 (centres undefined) | 1.05 equiv | 18.8% | 45.3% | 
3 | CC(C(=O)O)c1ccc(-c2ccc(O)c(C(=O)/C=C/c3ccc(N4CCCCC4)cc3)c2)c(F)c1 (centres undefined) | 1.1 equiv | 31.5% | 53.8% | 
4 | CCN(CC)c1ccc(/C=C/C(=O)c2cc(-c3ccc(C(C)C(=O)O)cc3F)ccc2O)cc1 (centres undefined) | 3.3 equiv | 78.2% | 95% | Activity (BV-2 [4]): Non-Toxic; Activity (BV-2 [5]): 64.9%; Activity (BV-2 [6]): Non-Toxic; inhibition at 2.5 µM (BV-2 [7]): 46.3%; inhibition at 10 µM (BV-2 [8]): 68.4%; inhibition at 0.5 µM (BV-2 [9]): 30.1%; inhibition at 2.5 µM (BV-2 [10]): 46.2%; inhibition at 10 µM (BV-2 [11]): 65.4%; inhibition at 0.5 µM (BV-2 [12]): 14.3%; Activity [13]: 500 nm; Activity [14]: 516 nm; Activity [15]: 1.04 molar ratio; Papp at 18 h, 100 ug/ml [16]: 6.66 ×10⁻⁶ cm/s
5 | CC(C(=O)O)c1ccc(-c2ccc(O)c(C(=O)/C=C/c3cccs3)c2)c(F)c1 (centres undefined) | 1.2 equiv | 16.6% | 12.1% | 
6 | COc1ccc(/C=C/C(=O)c2cc(-c3ccc(C(C)C(=O)O)cc3F)ccc2O)cc1 (centres undefined) | 0.61 equiv | 32.9% | 29.1% | 
7 | COc1cc2c(cc1OC)C(=O)C(CC1CCN(Cc3ccccc3)CC1)C2 (centres undefined) |  |  | < 5% | 
8 | CC(C(=O)O)c1ccc(-c2ccccc2)c(F)c1 (centres undefined) [FLURBIPROFEN] | 0.14 equiv | 12.3% | 6.2% | Activity (BV-2 [4]): Non-Toxic; Activity (BV-2 [5]): Non-Toxic; Activity (BV-2 [17]): Non-Toxic; inhibition at 2.5 µM (BV-2 [7]): 11.8%; inhibition at 10 µM (BV-2 [8]): 23%; inhibition at 2.5 µM (BV-2 [10]): 9.6%; inhibition at 10 µM (BV-2 [11]): 30.3%
9 | CC(C(=O)O)c1ccc(-c2ccc(O)c(C(=O)/C=C/c3ccncc3)c2)c(F)c1 (centres undefined) | 0.9 equiv | 18.2% | 52.8% | 
10 | COc1ccc(O)c(/C=C/C(=O)c2cc(-c3ccc(C(C)C(=O)O)cc3F)ccc2O)c1 (centres undefined) | 2.5 equiv | 38.1% | 22.2% | 
11 | CC(C(=O)O)c1ccc(-c2ccc(O)c(C(=O)/C=C/c3ccccc3O)c2)c(F)c1 (centres undefined) | 3.4 equiv | 23.1% | 16.3% | 
12 | COc1ccc(/C=C/C(=O)c2cc(-c3ccc(C(C)C(=O)O)cc3F)ccc2O)cc1O (centres undefined) | 2 equiv | 31% | 14.6% | 
13 | COc1cccc(/C=C/C(=O)c2cc(-c3ccc(C(C)C(=O)O)cc3F)ccc2O)c1O (centres undefined) | 1.6 equiv | 29% | 13.4% | 
14 | COc1ccc(/C=C/C(=O)c2cc(-c3ccc(C(C)C(=O)O)cc3F)ccc2O)cc1OC (centres undefined) | 1.56 equiv | 14.2% | 24.5% | 
15 | CC(C(=O)O)c1ccc(-c2ccc(O)c(C(=O)/C=C/c3ccc(O)cc3)c2)c(F)c1 (centres undefined) | 3.5 equiv | 18.7% | 26.1% | 
16 | COc1ccccc1/C=C/C(=O)c1cc(-c2ccc(C(C)C(=O)O)cc2F)ccc1O (centres undefined) | 1.06 equiv | 25.1% | 18.9% | 
17 | CC(C(=O)O)c1ccc(-c2ccc(O)c(C(=O)/C=C/c3ccccc3N(C)C)c2)c(F)c1 (centres undefined) | 0.77 equiv | 36.8% | 20.1% | 
18 | CC(C(=O)O)c1ccc(-c2ccc(O)c(C(=O)/C=C/c3ccc(N(C)C)cc3)c2)c(F)c1 (centres undefined) | 3.1 equiv | 60% | 52.4% | Activity (BV-2 [4]): Non-Toxic; Activity (BV-2 [5]): 69.1%; Activity (BV-2 [6]): Non-Toxic; inhibition at 2.5 µM (BV-2 [7]): 36%; inhibition at 10 µM (BV-2 [8]): 64.7%; inhibition at 0.5 µM (BV-2 [9]): 25.7%; inhibition at 2.5 µM (BV-2 [10]): 39.6%; inhibition at 10 µM (BV-2 [11]): 61.5%; inhibition at 0.5 µM (BV-2 [12]): 12.1%; Activity [13]: 492 nm; Activity [14]: 500 nm; Activity [18]: inactive; Activity [19]: inactive; Activity [15]: 0.99 molar ratio; Papp at 18 h, 100 ug/ml [16]: 2.25 ×10⁻⁶ cm/s
19 | Cc1ccc(/C=C/C(=O)c2cc(-c3ccc(C(C)C(=O)O)cc3F)ccc2O)cc1 (centres undefined) | 0.42 equiv | 23.6% | 18.7% | 
20 | COc1cc(/C=C/C(=O)CC(=O)/C=C/c2ccc(O)c(OC)c2)ccc1O |  |  | 69.5% | 
21 | CC(C(=O)O)c1ccc(-c2ccc(O)c(C(=O)/C=C/c3ccc(N4CCOCC4)cc3)c2)c(F)c1 (centres undefined) | 2.23 equiv | 51.3% | 47.2% | 
